Legend:
SARS-CoV-2 (HRB26M) = assay: microbe, parasite or virus in culture; format: cell-based; details: Severe acute respiratory syndrome coronavirus 2, Vero C1008, 24 h, combination molar ratio 1:1, read-out: EC50 (50% inhibitory concentration)
[1] = Single-dose pharmacokinetics in BALB/c mice; format: in vivo; details: for half-life / AUC(0-t) / CL/F / Cmax / Tmax / Vd/F / MRT last / MRT inf: BALB/c, mouse, plasma; for MRT last: read-out: MRT0−t; for MRT inf: read-out: MRT0−∞
Procedure: (§1) Healthy SPF BALB/c mice (7-8 weeks) and SD rats (4-6 weeks) were used in a single-dose PK study. […] The blood was collected at 0, 0.083, 0.25, 0.5, 1, 2, 4, 8, 12 and 24 h and placed in a precooled polypropylene centrifuge tube containing 3.0 µl of 40% EDTAK2. Then, the whole blood was centrifuged at 7800 g/min for 10 min at 4°C. Plasma was collected and stored in a freezer at −80°C. Plasma drug concentration was analyzed using LC-MS/MS. Pharmacokinetic parameters were calculated using WinNonlin software (version 6.4), and a non-atrioventricular model was used for data fitting. The data were analyzed using Microsoft Excel 2016 and GraphPad Prism 7.0.

[2] = Cell viability (Cell Titer-Glo) in Vero E6 cells; format: cell-based; details: African green monkey
Procedure: Cell viability was determined using the Cell Titer-Glo kit (Promega, Madison, WI, USA) following the manufacturer’s instructions. Briefly, Vero E6 cells were seeded in 96-well plates with opaque walls. […] Cell Titer-Glo reagent was added to each well, and luminescence was measured using a GloMax 96 Microplate Luminometer (Promega, Madison, WI, USA).

[3] = Single-dose pharmacokinetics in SD rats; format: in vivo; details: for AUC(0-t) / Tmax / Vd/F / CL/F / Cmax / half-life / MRT last / MRT inf: Sprague-Dawley, rat, plasma, im; for MRT last: read-out: MRT0−t; for MRT inf: read-out: MRT0−∞
Procedure: as §1

[4] = im, BALB/c mice, alone (GC376 111 mg/kg; GS441524 67 mg/kg)
[5] = im, BALB/c mice, i.m., alone (GC376 111 mg/kg; GS441524 67 mg/kg)
[6] = im, BALB/c mice, i.m., combined (GC376 55.5 + GS441524 33.5 mg/kg)
[7] = alone (GC376 111 mg/kg; GS441524 67 mg/kg)
[8] = combined (GC376 55.5 + GS441524 33.5 mg/kg)
[9] = im, 33.5 mg/kg, BALB/c mice, i.m., combined (GC376 55.5 + GS441524 33.5 mg/kg)
[10] = 33.5 mg/kg, i.m., combined (GC376 55.5 + GS441524 33.5 mg/kg)

CC(C)CC(NC(=O)OCc1ccccc1)C(=O)NC(CC1CCNC1=O)C(O)S(=O)(=O)O (centres unmarked) [GC376]
EC50 (SARS-CoV-2 (HRB26M)): 0.881 ± 0.109 µM
Cmax of GC376 relative to that of GS441524 ([1]; BALB/c mice, i.m., alone): approximately 1.2 fold
clearance rate (CL/F) of GC376 relative to that of GS441524 ([1]; BALB/c mice, i.m., alone): approximately 3.1 fold
half-life ([1]; (GC376 55.5 + GS441524 33.5 mg/kg)): 0.81 ± 0.22 h
AUC(0-t) [1, 4]: 55300 ± 11300 ng·h/mL
CL/F [1, 4]: 33.1 mL/min/kg
Cmax [1, 4]: 46700 ± 10700 ng/mL
Tmax [1, 4]: 0.22 ± 0.07 h
Vd/F [1, 4]: 2.87 ± 0.432 L/kg
half-life [1, 4]: 1.12 ± 0.53 h
MRT last [1, 5]: 1.05 ± 0.12 h
MRT inf [1, 5]: 1.38 ± 0.59 h
AUC(0-t) [1, 6]: 27800 ± 4410 ng·h/mL
CL/F [1, 6]: 33.9 mL/min/kg
Cmax [1, 6]: 30040 ± 220 ng/mL
Tmax [1, 6]: 0.25 h
Vd/F [1, 6]: 2.34 ± 0.617 L/kg
MRT last [1, 6]: 0.79 ± 0.09 h
MRT inf [1, 6]: 0.88 ± 0.12 h
CC50 at 24 h [2]: > 250 µM
AUC(0-t) [3]: 42400 ± 6440 ng·h/mL
Tmax [3]: 1.4 ± 0.49 h
Vd/F [3]: 5.17 ± 1.87 L/kg
AUC(0-t) [3, 7]: 92100 ± 9990 ng·h/mL
CL/F [3, 7]: 20.1 mL/min/kg
Cmax [3, 7]: 12600 ± 1900 ng/mL
Tmax [3, 7]: 1.3 ± 0.6 h
Vd/F [3, 7]: 6.75 ± 1.04 L/kg
half-life [3, 7]: 3.87 ± 0.49 h
MRT last [3, 7]: 5.83 ± 0.74 h
MRT inf [3, 7]: 6.06 ± 0.64 h
CL/F [3, 8]: 21.9 mL/min/kg
Cmax [3, 8]: 11800 ± 1630 ng/mL
half-life [3, 8]: 2.75 ± 0.91 h
MRT last [3, 8]: 2.97 ± 0.41 h
MRT inf [3, 8]: 3.32 ± 0.57 h
Cmax of GC376, fold lower than GS441524 ([3]; i.m., alone): approximately 2.5 fold
clearance rate (CL/F) of GC376 relative to that of GS441524 ([3]; i.m., alone): approximately 2.9 fold

N#C[C@@]1(c2ccc3c(N)ncnn23)O[C@H](CO)[C@@H](O)[C@H]1O [GS441524]
EC50 (SARS-CoV-2 (HRB26M)): 5.05 ± 2.12 µM
AUC0−t of GS441524 relative to that of GC376 ([1]; BALB/c mice, i.m., alone): approximately 1.9 fold
AUC(0-t) [1, 9]: 49000 ± 11700 ng·h/mL
CL/F [1, 9]: 11.8 mL/min/kg
Cmax [1, 9]: 16000 ± 2200 ng/mL
Tmax [1, 9]: 0.55 ± 0.24 h
Vd/F [1, 9]: 1.68 ± 0.282 L/kg
half-life [1, 9]: 1.67 ± 0.24 h
MRT last [1, 9]: 2.37 ± 0.73 h
MRT inf [1, 9]: 2.48 ± 0.71 h
AUC(0-t) [1, 4]: 107000 ± 16800 ng·h/mL
CL/F [1, 4]: 10.7 mL/min/kg
Cmax [1, 4]: 39600 ± 2930 ng/mL
Tmax [1, 4]: 0.8 ± 0.24 h
Vd/F [1, 4]: 1.37 ± 0.129 L/kg
half-life [1, 4]: 1.51 ± 0.16 h
MRT last [1, 5]: 2.07 ± 0.42 h
MRT inf [1, 5]: 2.15 ± 0.42 h
CC50 at 24 h [2]: > 250 µM
AUC(0-t) ([3]; 33.5 mg/kg): 88300 ± 26800 ng·h/mL
Tmax ([3]; 33.5 mg/kg): 3.4 ± 1.2 h
Vd/F ([3]; 33.5 mg/kg): 2.71 ± 1.25 L/kg
CL/F [3, 10]: 6.6 mL/min/kg
Cmax [3, 10]: 10500 ± 1850 ng/mL
half-life [3, 10]: 5.13 ± 2.56 h
MRT last [3, 10]: 6.03 ± 1.37 h
MRT inf [3, 10]: 7.57 ± 2.93 h
AUC(0-t) [3, 7]: 183000 ± 64400 ng·h/mL
CL/F [3, 7]: 7.05 mL/min/kg
Cmax [3, 7]: 31000 ± 8400 ng/mL
Tmax [3, 7]: 2 ± 1.1 h
Vd/F [3, 7]: 2.25 ± 0.946 L/kg
half-life [3, 7]: 3.8 ± 1.17 h
MRT last [3, 7]: 4.5 ± 1.11 h
MRT inf [3, 7]: 4.78 ± 1.49 h
AUC0−t of GS441524, fold higher than GC376 ([3]; i.m., alone): approximately 2.0 fold
